Experimental data: PubChem BioAssay (NCI)
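Each compound was tested at five concentrations against cells in 96-well plates for 48 hours. GI50: concentration for 50% inhibition of growth. The concentration for full growth arrest is given as TGI.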

Tests used:
Assay in all cases: NCI anticancer screen, dose series, 48 h
A498 renal = system: A498 renal
OVCAR-5 ovarian = system: OVCAR-5 ovarian
IGROV1 ovarian = system: IGROV1 ovarian
UACC-257 melanoma = system: UACC-257 melanoma
ACHN renal = system: ACHN renal
MALME-3M melanoma = system: MALME-3M melanoma
SK-MEL-28 melanoma = system: SK-MEL-28 melanoma
SF-268 CNS = system: SF-268 CNS
NCI-H226 lung = system: NCI-H226 lung
RPMI-8226 leukemia = system: RPMI-8226 leukemia
K-562 leukemia = system: K-562 leukemia
MDA-MB-435 = system: MDA-MB-435
PC-3 prostate = system: PC-3 prostate
MCF7 breast = system: MCF7 breast
HL-60(TB) leukemia = system: HL-60(TB) leukemia
MOLT-4 leukemia = system: MOLT-4 leukemia
786-0 renal = system: 786-0 renal
OVCAR-4 ovarian = system: OVCAR-4 ovarian
OVCAR-3 ovarian = system: OVCAR-3 ovarian
DU-145 prostate = system: DU-145 prostate
COLO 205 colon = system: COLO 205 colon
HCT-15 colon = system: HCT-15 colon
NCI-H460 lung = system: NCI-H460 lung
T-47D breast = system: T-47D breast
UACC-62 melanoma = system: UACC-62 melanoma
UO-31 renal = system: UO-31 renal

**Q.** For `Oc1ccc(Cl)cc1-c1cc(-c2ccccc2Cl)[nH]n1`, which GI50 (A498 renal) is on record?
**A.** Its GI50 is 95.7 µM.

**Q.** And the TGI (A498 renal)?
**A.** Its TGI is > 100 µM.

**Q.** And the GI50 (OVCAR-5 ovarian)?
**A.** The GI50 was 8.88 µM.

**Q.** What about the TGI (OVCAR-5 ovarian) of the same compound?
**A.** The TGI was > 100 µM.

**Q.** What about the GI50 (IGROV1 ovarian) of the same compound?
**A.** Its GI50 is 1.66 µM.

**Q.** And the TGI (IGROV1 ovarian)?
**A.** The TGI was > 100 µM.

**Q.** What about the GI50 (UACC-257 melanoma) of the same compound?
**A.** The GI50 was 30.8 µM.

**Q.** And the TGI (UACC-257 melanoma)?
**A.** Its TGI is > 100 µM.

**Q.** What about the GI50 (ACHN renal) of the same compound?
**A.** Its GI50 is 8.17 µM.

**Q.** What about the TGI (ACHN renal) of the same compound?
**A.** The TGI was > 100 µM.

**Q.** And the GI50 (MALME-3M melanoma)?
**A.** The GI50 was 9.76 µM.

**Q.** What about the TGI (MALME-3M melanoma) of the same compound?
**A.** Its TGI is > 100 µM.

**Q.** What about the GI50 (SK-MEL-28 melanoma) of the same compound?
**A.** Its GI50 is > 100 µM.

**Q.** And the TGI (SK-MEL-28 melanoma)?
**A.** The TGI was > 100 µM.

**Q.** What about the GI50 (SF-268 CNS) of the same compound?
**A.** Its GI50 is 7.71 µM.

**Q.** What about the TGI (SF-268 CNS) of the same compound?
**A.** Its TGI is > 100 µM.

**Q.** And the GI50 (NCI-H226 lung)?
**A.** Its GI50 is 13.8 µM.

**Q.** And the TGI (NCI-H226 lung)?
**A.** The TGI was > 100 µM.

**Q.** And the GI50 (RPMI-8226 leukemia)?
**A.** The GI50 was 3.15 µM.

**Q.** And the TGI (RPMI-8226 leukemia)?
**A.** Its TGI is > 100 µM.

**Q.** What about the GI50 (K-562 leukemia) of the same compound?
**A.** Its GI50 is 4.59 µM.

**Q.** And the TGI (K-562 leukemia)?
**A.** Its TGI is > 100 µM.

**Q.** What about the GI50 (MDA-MB-435) of the same compound?
**A.** The GI50 was 8.44 µM.

**Q.** What about the TGI (MDA-MB-435) of the same compound?
**A.** Its TGI is > 100 µM.

**Q.** What about the GI50 (PC-3 prostate) of the same compound?
**A.** The GI50 was 3.02 µM.

**Q.** What about the TGI (PC-3 prostate) of the same compound?
**A.** Its TGI is > 100 µM.

**Q.** And the GI50 (MCF7 breast)?
**A.** The GI50 was 0.362 µM.

**Q.** And the TGI (MCF7 breast)?
**A.** Its TGI is > 100 µM.

**Q.** And the GI50 (HL-60(TB) leukemia)?
**A.** Its GI50 is 4.22 µM.

**Q.** And the TGI (HL-60(TB) leukemia)?
**A.** The TGI was > 100 µM.

**Q.** What about the GI50 (MOLT-4 leukemia) of the same compound?
**A.** Its GI50 is 5.38 µM.

**Q.** And the TGI (MOLT-4 leukemia)?
**A.** Its TGI is > 100 µM.

**Q.** What about the GI50 (786-0 renal) of the same compound?
**A.** Its GI50 is > 100 µM.

**Q.** And the TGI (786-0 renal)?
**A.** Its TGI is > 100 µM.

**Q.** What about the GI50 (OVCAR-4 ovarian) of the same compound?
**A.** The GI50 was 0.28 µM.

**Q.** And the TGI (OVCAR-4 ovarian)?
**A.** The TGI was > 100 µM.

**Q.** What about the GI50 (OVCAR-3 ovarian) of the same compound?
**A.** Its GI50 is 2.37 µM.

**Q.** What about the TGI (OVCAR-3 ovarian) of the same compound?
**A.** Its TGI is > 100 µM.

**Q.** And the GI50 (DU-145 prostate)?
**A.** Its GI50 is 8.05 µM.

**Q.** And the TGI (DU-145 prostate)?
**A.** Its TGI is > 100 µM.

**Q.** And the GI50 (COLO 205 colon)?
**A.** The GI50 was 27.3 µM.

**Q.** What about the TGI (COLO 205 colon) of the same compound?
**A.** Its TGI is > 100 µM.

**Q.** And the GI50 (HCT-15 colon)?
**A.** Its GI50 is 0.488 µM.

**Q.** And the TGI (HCT-15 colon)?
**A.** Its TGI is > 100 µM.

**Q.** What about the GI50 (NCI-H460 lung) of the same compound?
**A.** Its GI50 is 3.47 µM.

**Q.** And the TGI (NCI-H460 lung)?
**A.** The TGI was > 100 µM.

**Q.** What about the GI50 (T-47D breast) of the same compound?
**A.** The GI50 was 1.61 µM.

**Q.** And the TGI (T-47D breast)?
**A.** Its TGI is > 100 µM.

**Q.** What about the GI50 (UACC-62 melanoma) of the same compound?
**A.** Its GI50 is 5.29 µM.

**Q.** And the TGI (UACC-62 melanoma)?
**A.** Its TGI is > 100 µM.

**Q.** What about the GI50 (UO-31 renal) of the same compound?
**A.** Its GI50 is 3.77 µM.
